Measured values: PubChem BioAssay AID1963834 (Molecular Pharmacology Branch, DTP, NCI, 2024)

Tested on: 873145-292-R-J1-PDC complex spheroid viability
Test: Anticancer human tumor 873145-292-R-J1-PDC patient-derived renal clear cell carcinoma cell line growth inhibition [POLQ]
Settings: for IC50: curve of first compound; for viability, T/C: stronger effect = lower value
Method: Multicellular complex tumor spheroid response to Polymerase (POL) inhibitors (novobiocin, ART-558, RP6685) in combination with a variety of drugs and investigational agents in selected tumor cell lines
The POL inhibitors (novobiocin, ART-558, and RP6685) were evaluated both individually and in combination with standard of care and investigational anticancer small molecules within a complex spheroid model of solid tumors. . Complex spheroids include a stromal component modeled by human endothelial cells (HUVEC) and fibroblasts modeled by human mesenchymal stem cells (MSCs). The concentration ranges selected for each drug and investigational agent were based upon clinically achievable concentrations if the clinical Cmax of the agent was known.
Compounds. The drugs and investigational agents: novobiocin (NSC847541), ART-558 (NSC835418), RP-6685 (NSC848927), peposertib (NSC802822), ceralasertib (NSC780249), elimusertib (NSC800525), camonsertib (NSC841442), AZD-1390 (NSC803789), olaparib (NSC753686), talazoparib (NSC767125), rucaparib (NSC756644), sotorasib (NSC818433), MRTX-1133 (NSC836407), SN-38 (NSC673596), topotecan (NSC609699), epotoside (NSC141540), doxorubicin (NSC123127), gemcitabine (NSC613327), 5-fluorouracil (NSC19893), paclitaxel (NSC125973), vemurafenib (NSC761431), MSA-2 (NSC828583), SN-011 (NSC837082), adavosertib (NSC754352), prexasertib (NSC758257), carboplatin (NSC241240) and oxaliplatin (NSC266046), were obtained from the National Cancer Institute (NCI) Developmental Therapeutics Program Chemical Repository (21). The FDA-approved anticancer drug set is available from the Developmental Therapeutics Program at https://dtp.cancer.gov/organization/dscb/obtaining/. […] The stock solutions were prepared in dimethyl sulfoxide (DMSO, Sigma-Aldrich, St. Louis, MO, cat. D2650), except for the platinum compounds which were prepared in saline (Quality Biological, Gaithersburg, MD, cat. 114-055-101), at 800-fold the tested concentration and stored at -70 degrees C prior to their use. All drugs and investigational agents were tested over a range starting from a high concentration at or near the clinical Cmax and decreasing in half-log increments. If the clinical Cmax for an agent had not been determined, the highest concentration tested was 10 microM, except for SN-38, which was tested at a high concentration of 1 microM.
Cell Culture. All cells were maintained in an incubator at 37 degrees C and 5% CO2 with 95% humidity. The PDC lines were cultured according to standard operating procedures established by the NCI PDMR (https://pdmr.cancer.gov). Table 3 of the manuscript, lists the cell lines along with the number of the three cell types plated to form the mct-spheroids and media for tumor cell growth. After thawing, all PDC lines, except 997537-175-T-J1-PDC and 415267-285-R-J2-PDC, were cultured in Matrigel-coated flasks prepared with a working solution of 1X Ham's F-12 nutrient mix, without supplementation (Thermo Fisher Scientific, cat. 11765054), 100 U/mL penicillin-streptomycin (Thermo Fisher Scientific, cat. 15140122), and 2.5% Matrigel (Corning Inc., Corning, NY, cat. 354248) for the first three passages. The two PDC lines 997537-175-T-J1-PDC and 415267-285-R-J2-PDC were cultured on uncoated flasks. The 857933-349-R-J2-PDC line was cultured in 6C/Colon 1B media containing advanced DMEM/F-12 (Thermo Fisher Scientific, cat. 12634028), 10 mM HEPES (Thermo Fisher Scientific, cat. 15630080), 1X GlutaMAX supplement (Thermo Fisher Scientific, cat. 35050061), 0.1 mg/mL primocin (InvivoGen, San Diego, CA, cat. ant-pm-2), 10% defined fetal bovine serum, heat inactivated (HyClone Laboratories Inc., Logan, UT, cat. SH30070.03HI), 50% L-WRN conditioned media (ATCC, cat. CRL-3276), 1.25 mM N-Acetyl-L-cysteine (Sigma-Aldrich, cat. A9165), 10 mM nicotinamide (Sigma-Aldrich, cat. N0636), 1X B-27 supplement (Thermo Fisher Scientific, cat. 17504044), 1X N-2 supplement (Thermo Fisher Scientific, cat. […]

[1] = second compound 0.0316 µM, first compound 0.0316 µM
[2] = second compound 0.0316 µM, first compound 0.1 µM
[3] = second compound 0.0316 µM, first compound 0.316 µM
[4] = second compound 0.0316 µM, first compound 1 µM
[5] = second compound 0.0316 µM, first compound 3.16 µM
[6] = second compound 0.0316 µM, first compound 10 µM
[7] = second compound 0.1 µM, first compound 0.0316 µM
[8] = second compound 0.1 µM, first compound 0.1 µM
[9] = second compound 0.1 µM, first compound 0.316 µM
[10] = second compound 0.1 µM, first compound 1 µM
[11] = second compound 0.1 µM, first compound 3.16 µM
[12] = second compound 0.1 µM, first compound 10 µM
[13] = second compound 0.316 µM, first compound 0.0316 µM
[14] = second compound 0.316 µM, first compound 0.1 µM
[15] = second compound 0.316 µM, first compound 0.316 µM
[16] = second compound 0.316 µM, first compound 1 µM
[17] = second compound 0.316 µM, first compound 3.16 µM
[18] = second compound 0.316 µM, first compound 10 µM
[19] = second compound 1 µM, first compound 0.0316 µM
[20] = second compound 1 µM, first compound 0.1 µM
[21] = second compound 1 µM, first compound 0.316 µM
[22] = second compound 1 µM, first compound 1 µM
[23] = second compound 1 µM, first compound 3.16 µM
[24] = second compound 1 µM, first compound 10 µM
[25] = second compound 3.16 µM, first compound 0.0316 µM
[26] = second compound 3.16 µM, first compound 0.1 µM
[27] = second compound 3.16 µM, first compound 0.316 µM
[28] = second compound 3.16 µM, first compound 1 µM
[29] = second compound 3.16 µM, first compound 3.16 µM
[30] = second compound 3.16 µM, first compound 10 µM
[31] = second compound 10 µM, first compound 0.0316 µM
[32] = second compound 10 µM, first compound 0.1 µM
[33] = second compound 10 µM, first compound 0.316 µM
[34] = second compound 10 µM, first compound 1 µM
[35] = second compound 10 µM, first compound 3.16 µM
[36] = second compound 10 µM, first compound 10 µM
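Also: spheroids exposed to compounds for 7 days before viability readout.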
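For viability, T/C in this document: luminescence signal used as surrogate for viable cell content; 100% = DMSO vehicle control viability.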

With COc1cccc2c1C(=O)c1c(O)c3c(c(O)c1C2=O)CC(O)(C(=O)CO)CC3OC1CC(N)C(O)C(C)O1 (centres undefined) + COC1C(OC(N)=O)C(O)C(Oc2ccc3c(O)c(NC(=O)c4ccc(O)c(CC=C(C)C)c4)c(=O)oc3c2C)OC1(C)C the IC50 (second compound 0.0316 µM) was 1610 nM, the IC50 (second compound 0.1 µM) was 1600 nM and the IC50 (second compound 0.316 µM) was 1510 nM. The IC50 (second compound 1 µM) was 1400 nM, the IC50 (second compound 3.16 µM) was 1450 nM and the IC50 (second compound 10 µM) was 1500 nM. For the same molecule, the viability, T/C [1] was 98.9%, the viability, T/C [2] was 92.4% and the viability, T/C [3] was 74.9%. It also gave a viability, T/C [4] of 81.8%, a viability, T/C [5] of 4.46% and a viability, T/C [6] of 4.3%. The viability, T/C [7] was 99.5%, the viability, T/C [8] was 91.7% and the viability, T/C [9] was 75.1%. For the same molecule, the viability, T/C [10] was 80.8%, the viability, T/C [11] was 5.22% and the viability, T/C [12] was 4.58%. The viability, T/C [13] was 98.1%, the viability, T/C [14] was 84.2% and the viability, T/C [15] was 69.3%. For the same molecule, the viability, T/C [16] was 74.1%, the viability, T/C [17] was 7.63% and the viability, T/C [18] was 3.12%. The viability, T/C [19] was 99.6%, the viability, T/C [20] was 78.8% and the viability, T/C [21] was 78.8%. The viability, T/C [22] was 68.5%, the viability, T/C [23] was 5.35% and the viability, T/C [24] was 3.76%. The viability, T/C [25] was 93.3%, the viability, T/C [26] was 79.8% and the viability, T/C [27] was 80.7%. The viability, T/C [28] was 71.1%, the viability, T/C [29] was 5.62% and the viability, T/C [30] was 2.42%. For the same molecule, the viability, T/C [31] was 101%, the viability, T/C [32] was 90.1% and the viability, T/C [33] was 78.2%. For the same molecule, the viability, T/C [34] was 74.4%, the viability, T/C [35] was 5.66% and the viability, T/C [36] was 2.86%.

With O=c1[nH]cc(F)c(=O)[nH]1 + COC1C(OC(N)=O)C(O)C(Oc2ccc3c(O)c(NC(=O)c4ccc(O)c(CC=C(C)C)c4)c(=O)oc3c2C)OC1(C)C the IC50 (second compound 0.0316 µM) was greater than 10000 nM, the IC50 (second compound 0.1 µM) was greater than 10000 nM and the IC50 (second compound 0.316 µM) was greater than 10000 nM. The IC50 (second compound 1 µM) was greater than 10000 nM, the IC50 (second compound 3.16 µM) was greater than 10000 nM and the IC50 (second compound 10 µM) was greater than 10000 nM. The viability, T/C [1] was 100%, the viability, T/C [2] was 92.8% and the viability, T/C [3] was 90.8%. The viability, T/C [4] was 110%, the viability, T/C [5] was 87.9% and the viability, T/C [6] was 96.8%. It also gave a viability, T/C [7] of 105%, a viability, T/C [8] of 103% and a viability, T/C [9] of 85.2%. The viability, T/C [10] was 95.4%, the viability, T/C [11] was 89.2% and the viability, T/C [12] was 89.1%. It also gave a viability, T/C [13] of 101%, a viability, T/C [14] of 90% and a viability, T/C [15] of 87.1%. It also gave a viability, T/C [16] of 87.4%, a viability, T/C [17] of 109% and a viability, T/C [18] of 91.3%. It also gave a viability, T/C [19] of 88.9%, a viability, T/C [20] of 89.8% and a viability, T/C [21] of 86.2%. The viability, T/C [22] was 87.7%, the viability, T/C [23] was 100% and the viability, T/C [24] was 88.5%. It also gave a viability, T/C [25] of 95%, a viability, T/C [26] of 95.5% and a viability, T/C [27] of 90.2%. For the same molecule, the viability, T/C [28] was 92.3%, the viability, T/C [29] was 101% and the viability, T/C [30] was 91.3%. The viability, T/C [31] was 91.3%, the viability, T/C [32] was 91.3% and the viability, T/C [33] was 92.5%. It also gave a viability, T/C [34] of 96.3%, a viability, T/C [35] of 93.1% and a viability, T/C [36] of 89.9%.
